Source: paper PMC8401933 (Molecules, 2021)
Entries after “also recorded” stand apart in the source; their conditions may differ.

Experiments:
3T3-L1 cells = assay: Adipocyte differentiation, Oil Red O staining; format: cell-based; settings: for adipogenesis (ORO staining) / lipid accumulation / adipocyte differentiation (ORO staining): stained at day 8; for lipid accumulation / adipocyte differentiation (ORO staining): 3T3-L1, treated during differentiation; for quantity of lipid droplets (ORO staining): CX-4945 5 μM, KD025 3 μM
Procedure: (§1) The preadipocyte 3T3-L1 cell line was kindly provided by Dr. Hyun-Sung Park (University of Seoul) and cultured in Dulbecco’s modified Eagle’s medium (DMEM, Sigma-Aldrich) supplied with 10% heat-inactivated newborn calf serum (Invitrogen, CA, USA), 100 units/mL penicillin, and 100 µg/mL streptomycin (Cellgro, VA, USA). The cells were maintained in an incubator at 37 °C and 5% CO2. To initiate differentiation, the cells were incubated for additional days after 100% confluence and then further incubated in a medium containing fetal bovine serum (FBS) and a differentiation cocktail (DMI, 1 μM dexamethasone, 0.5 mM 3-isobutyl-1-methylxanthine, and 5 μg/mL insulin) as previously described. In brief, at day 3, the culture medium was replaced with DMEM/10%FBS containing 5 µg/mL insulin. Then, growth medium was changed every 2 days.
Lipid droplets of cells were stained using ORO (Sigma-Aldrich, MA, USA). In brief, the cells were washed with phosphate buffered saline and incubated with 10% formalin for 5 min. The cells were then fixed with the same volume of fresh formalin for at least 1 h. Subsequently, the cells were washed with 60% isopropanol, air dried completely, and then stained with ORO working solution (1% ORO/isopropanol: distilled water = 3:2). The stained cells were washed with water four times. Cell images were taken by a microscope (Nikon Eclipse TS100-F, Japan). Then, 100% isopropanol was added and incubated for 10 min to quantify the intensity of ORO. The quantity of extracted dye was obtained by obtaining absorbance at 540 nm in the Synergy H1 hybrid reader (BioTek, VT, USA).

[1] = system: Pparg and Cebpa genes in 3T3-L1 cells; assay: qRT-PCR of adipogenic genes during differentiation; format: cell-based; settings: 3T3-L1 during differentiation; KD025 5 μM, CX-4945 10 μM, Y-27632 10 μM
Procedure: as §1
Total RNA was extracted using easy-BLUE (iNtRON Biotechnology, Dajeon, Korea) in accordance with the manufacturer’s protocol. cDNA was synthesized from 2 µg of total RNA using TOPscript^TM Drymix Kit (Enzynomics, Dajeon, Korea). qRT-PCR was performed using TB Green ® Premix Ex Taq^TM II (Tli RNAse H Plus) (TaKaRa, Japan) with Applied Biosystems QuantStudio™ 1 Real-Time PCR System (Thermo Fisher Scientific, Waltham, MA, USA). Gene expression data were normalized based on the use of the same amount of total RNA samples. The relative fold change of gene expression was calculated using the ∆Ct method.

ROCK2 = ROCK2 (Homo sapiens, UniProt O75116); assay: KINOMEscan Kd determination; settings: 11-point concentrations, duplicate
Sequence of ROCK2 (O75116 whole entry): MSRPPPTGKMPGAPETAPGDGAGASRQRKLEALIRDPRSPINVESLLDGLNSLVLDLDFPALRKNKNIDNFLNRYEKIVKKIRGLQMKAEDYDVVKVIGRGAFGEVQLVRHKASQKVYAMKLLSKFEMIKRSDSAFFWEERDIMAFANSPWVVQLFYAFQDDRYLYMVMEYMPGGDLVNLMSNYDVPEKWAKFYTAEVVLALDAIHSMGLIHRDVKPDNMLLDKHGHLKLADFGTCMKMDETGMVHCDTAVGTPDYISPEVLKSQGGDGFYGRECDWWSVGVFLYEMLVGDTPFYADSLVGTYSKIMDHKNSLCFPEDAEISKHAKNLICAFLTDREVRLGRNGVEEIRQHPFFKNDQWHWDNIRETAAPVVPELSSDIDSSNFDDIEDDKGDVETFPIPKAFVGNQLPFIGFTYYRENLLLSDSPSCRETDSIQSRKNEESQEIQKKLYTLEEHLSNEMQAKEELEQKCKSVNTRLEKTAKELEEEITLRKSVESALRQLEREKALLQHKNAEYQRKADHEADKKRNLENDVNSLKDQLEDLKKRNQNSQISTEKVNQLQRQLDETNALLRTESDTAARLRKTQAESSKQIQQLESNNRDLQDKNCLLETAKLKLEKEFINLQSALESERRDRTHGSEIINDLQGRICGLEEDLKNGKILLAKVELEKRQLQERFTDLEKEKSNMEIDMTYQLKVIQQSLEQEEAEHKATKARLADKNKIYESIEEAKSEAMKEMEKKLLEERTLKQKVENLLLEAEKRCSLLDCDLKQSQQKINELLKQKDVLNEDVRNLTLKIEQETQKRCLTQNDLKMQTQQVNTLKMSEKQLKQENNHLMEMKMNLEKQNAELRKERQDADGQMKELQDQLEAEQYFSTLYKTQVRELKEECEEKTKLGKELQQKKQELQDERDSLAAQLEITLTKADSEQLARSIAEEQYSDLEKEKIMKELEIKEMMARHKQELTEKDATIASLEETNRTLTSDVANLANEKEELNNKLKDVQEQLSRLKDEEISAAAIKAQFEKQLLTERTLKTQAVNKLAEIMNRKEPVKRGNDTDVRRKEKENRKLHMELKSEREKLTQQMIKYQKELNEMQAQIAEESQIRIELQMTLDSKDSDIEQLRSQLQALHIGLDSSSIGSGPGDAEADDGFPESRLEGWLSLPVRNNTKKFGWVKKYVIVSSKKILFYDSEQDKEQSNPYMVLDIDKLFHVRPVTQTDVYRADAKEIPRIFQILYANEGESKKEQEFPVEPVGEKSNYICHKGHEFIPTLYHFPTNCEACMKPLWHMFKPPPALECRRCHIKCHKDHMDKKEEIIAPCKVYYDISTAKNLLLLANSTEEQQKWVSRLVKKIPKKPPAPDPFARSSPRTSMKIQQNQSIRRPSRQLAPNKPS
Procedure: Dissociation constant (Kd) was measured using KINOMEscan^TM profiling service. […] The binding activity of inhibitors was monitored by measuring remained kinase-ligand binding activity. Kd was calculated based on the nonlinear least-square fit model by using the “drm” function of drc package [54] in R software (version 3.6.1).

## CN(C)c1nc2c(Br)c(Br)c(Br)c(Br)c2[nH]1 [DMAT, 2-dimethylamino-4,5,6,7-tetrabromo-1H-benzimidazole]
3T3-L1 cells; 3T3-L1, 5 μM
  adipogenesis (ORO staining): promoting reversely the differentiation
3T3-L1 cells; 3T3-L1, 30 μM
  adipogenesis (ORO staining): inhibited the adipogenesis
3T3-L1 cells
  lipid accumulation / adipocyte differentiation (ORO staining): inhibited effectively

## O=S(=O)(c1cccc2cnccc12)N1CCCNCC1 [fasudil]
3T3-L1 cells
  lipid accumulation / adipocyte differentiation (ORO staining): does not
3T3-L1 cells; listed as Fasudil
  lipid accumulation / adipocyte differentiation (ORO staining): no significant effect

## O=C1c2ccc(O)c(O)c2C(=O)c2c(O)ccc(O)c21 [quinalizarin, 1,2,5,8-tetrahydroxyanthraquinone]
3T3-L1 cells; 3T3-L1, 5, 10, and 30 μM
  adipogenesis (ORO staining): suppressed adipogenesis
3T3-L1 cells
  lipid accumulation / adipocyte differentiation (ORO staining): inhibited effectively

## C[C@@H](N)[C@H]1CC[C@H](C(=O)Nc2ccncc2)CC1 [Y-27632]
[1]
  expression of Pparg and Cebpa genes: increased; also recorded: did not suppress

## O=C(O)c1ccc2c(c1)nc(Nc1cccc(Cl)c1)c1ccncc12 [CX-4945]
ROCK2
  Kd: no selective interaction; also recorded: did not show such cross-reactivity
[1]
  expression of Pparg and Cebpa genes: markedly suppressed
3T3-L1 cells
  lipid accumulation / adipocyte differentiation (ORO staining): suppressed the generation of lipid droplets; also recorded: significantly reduced the amount of accumulated fat in a dose-dependent manner
3T3-L1 cells; 3T3-L1, treated during the early (days 0–1) or late (days 5–8) stage
  quantity of lipid droplets (ORO staining): ineffective; also recorded: lesser effect
3T3-L1 cells; 3T3-L1, treated during the intermediate stage (days 1–3)
  quantity of lipid droplets (ORO staining): acted specifically in the middle stage; also recorded: significantly reduced
